Values joined by “and” are separate entries in the source; they are usually repeats but may differ in a detail not shown here. Equal values may be shown once. One block for each compound: values may come before it.
Assay: solvent given as SMILES

SMILES: N#CC1=C(c2ccc(-c3cccs3)s2)CCC1
absorption maximum (in C1CCOC1): 364 nm
absorption maximum (in CC#N): 362 nm
absorption maximum (in CCCCCC): 360 nm
absorption maximum (in CCO): 366 nm
absorption maximum (in OCCOCCO): 367 nm
absorption maximum (in c1ccncc1): 368 nm

SMILES: CCCCN(CCCC)c1ccc(/C=C/c2ccc(-c3ccc(/C=C/c4ccc(N(CCCC)CCCC)cc4)cc3)cc2)cc1
absorption maximum (in CS(C)=O): 412.9 nm
absorption maximum (in Cc1ccccc1): 399.3 nm

absorption maximum (in ClCCl): 651 nm
SMILES: CC(C)[Si](C#Cc1c2cc3ccccc3cc2c(C#Cc2ccc(F)cc2)c2cc3ccccc3cc12)(C(C)C)C(C)C

SMILES: N#CC(C#N)=Cc1cn(-c2ccccc2)nc1-c1ccccc1
absorption maximum (in C1CCOC1): 354 nm
absorption maximum (in C1COCCO1): 353 nm
absorption maximum (in CCO): 354 nm
absorption maximum (in CCOC(C)=O): 352 nm
absorption maximum (in CN(C)C=O): 355 nm
absorption maximum (in CO): 351 nm
absorption maximum (in CS(C)=O): 356 nm
absorption maximum (in Cc1ccccc1): 361 nm
absorption maximum (in ClC(Cl)Cl): 359 nm
absorption maximum (in ClCCl): 357 nm

SMILES: CN(C)c1ccc2nc(/C=C/c3ccccc3)c(=O)oc2c1
absorption maximum (in C1CCCCC1): 438.5 nm
absorption maximum (in C1COCCO1): 453 nm
absorption maximum (in CC#N): 463 nm
absorption maximum (in CC(C)=O): 462 nm
absorption maximum (in CCCCCCC): 436 nm
absorption maximum (in CCO): 466 nm
absorption maximum (in CCOC(C)=O): 457 nm
absorption maximum (in CN(C)C=O): 469 nm
absorption maximum (in CS(C)=O): 475 nm
absorption maximum (in Cc1ccccc1): 459.5 nm
absorption maximum (in ClC(Cl)Cl): 467 nm
absorption maximum (in ClCCl): 467.5 nm

absorption maximum (in ClCCl): 333 nm
SMILES: c1ccc(-c2nc(-c3ccc(N4c5ccccc5Oc5ccccc54)cc3)nn2-c2ccc(N3c4ccccc4Oc4ccccc43)cc2)nc1

absorption maximum (in ClCCl): 375 nm
SMILES: CCOC(=O)c1ccc(C2CC(c3cccc4ccccc34)=NN2c2ccc(F)cc2)cc1 (stereo not drawn)

SMILES: Cc1cc(C)c(B(c2ccc(-c3nc4c5ccccc5c5ccccc5c4[nH]3)cc2)c2c(C)cc(C)cc2C)c(C)c1
absorption maximum (in C1CCOC1): 384 nm
absorption maximum (in CC(C)=O): 380 nm
absorption maximum (in CS(C)=O): 386 nm
absorption maximum (in Cc1ccccc1): 381 nm
absorption maximum (in ClCCl): 376 nm

absorption maximum (in ClCCl): 404 nm
SMILES: CCCCCCn1c(=O)c2c3nc4ccccc4nc3c3c(=O)n(CCCCCC)c(=O)c3c2c1=O

absorption maximum (in CO): 278 nm
SMILES: N#Cc1c(-n2nnc3ccccc32)n([C@H]2C[C@H](O)[C@@H](CO)O2)c2ncnc(N)c12

SMILES: N#Cc1ccccc1N1c2ccccc2C(c2ccccc2)(c2ccccc2)c2ccccc21
absorption maximum (in Cc1ccccc1): 356 nm

absorption maximum (in ClCCl): 373 nm
absorption maximum (in O): 326 nm
SMILES: O=Cc1ccc(-c2ccc(-c3nc4ccccc4s3)c(O)c2)o1

absorption maximum (in ClC(Cl)Cl): 451 nm
SMILES: CCCCCCc1ccc(-c2ccc(-c3cc(-c4ccc(-c5ccc(CCCCCC)s5)s4)c4ccc5c(-c6ccc(-c7ccc(CCCCCC)s7)s6)cc(-c6ccc(-c7ccc(CCCCCC)s7)s6)c6ccc3c4c65)s2)s1

absorption maximum (in ClCCl): 500 nm
SMILES: CCCN1c2ccc(C3=C4C=CC=[N+]4[B-](F)(F)n4cccc43)cc2Sc2cc(C3=C4C=CC=[N+]4[B-](F)(F)n4cccc43)ccc21

absorption maximum (in CCO): 354 nm
absorption maximum (in ClC(Cl)Cl): 355 nm
SMILES: COc1ccc2c(-c3nc(-c4ccccc4Cl)no3)cc(=O)oc2c1

absorption maximum (in CS(C)=O): 304 nm
SMILES: O=C1CC(=O)Nc2cc(C(=O)O)ccc2N1

absorption maximum (in C1CCCCC1): 410 nm
SMILES: CCCC1(CCC)c2cc(-c3ccc(-c4ccc(OC)cc4)o3)ccc2-c2ccc(-c3ccc(-c4ccc(OC)cc4)o3)cc21

absorption maximum (in CC#N): 392 nm
absorption maximum (in ClCCl): 394 nm
SMILES: COC(=O)c1cc(=O)n(C)c2cc(-c3ccccc3)sc12

absorption maximum (in CCO): 636 nm
absorption maximum (in CO): 633 nm
absorption maximum (in CS(C)=O): 644 nm
absorption maximum (in O): 631 nm
SMILES: CN1/C(=C/C=C(/C=C/C2=[N+](C)c3ccccc3C2(C)C)c2cc(F)cc(F)c2)C(C)(C)c2ccccc21

absorption maximum (in ClCCl): 432 nm
SMILES: CN(C)c1ccc(/C=C/c2cnc(/C=C/c3ccc(C#N)cc3)o2)cc1

absorption maximum (in C1CCOC1): 344 nm
SMILES: N#Cc1c(N2CCCCC2)cc(-c2ccc3ccc4cccc5ccc2c3c45)c2c1Cc1ccccc1-2

absorption maximum (in ClCCl): 321 nm
SMILES: CCOC(=O)c1c(-c2cc3ccccc3oc2=O)nn(-c2cccc(C)c2)c1C(=O)OCC

absorption maximum (in CCOC(C)=O): 419 nm
SMILES: CCN1CCN(c2ccc(/N=N/c3ccc(C(=O)OC)cc3)cc2)CC1

SMILES: C[n+]1ccc(-c2ccc([O-])cc2)cc1
absorption maximum (in CC#N): 472 nm
absorption maximum (in CC(C)=O): 479 nm
absorption maximum (in CC(C)O): 457 nm
absorption maximum (in CCC(C)O): 460 nm
absorption maximum (in CCCO): 441 nm
absorption maximum (in CO): 418 nm
absorption maximum (in CS(C)=O): 473 nm
absorption maximum (in O): 394 nm

SMILES: O=C1c2ccccc2-c2ccc(Nc3nc(Cl)nc(Cl)n3)c3cccc1c23
absorption maximum (in CC(C)=O): 405.02 nm
absorption maximum (in CC(C)O): 411.86 nm
absorption maximum (in CCCCOCCCC): 400.96 nm
absorption maximum (in CCOC(C)=O): 403.06 nm
absorption maximum (in CO): 410 nm
absorption maximum (in Cc1ccccc1): 411.02 nm
absorption maximum (in Clc1ccccc1): 410 nm
absorption maximum (in O=C1CCCCC1): 410 nm

SMILES: CN(C)c1ccc(/C=C/c2cc[n+](C)cc2)cc1
absorption maximum (in C1CCOC1): 483 nm
absorption maximum (in CC1COC(=O)O1): 473 nm
absorption maximum (in CC#N): 470 nm
absorption maximum (in CC(C)=O): 474 nm and 468 nm
absorption maximum (in CC(C)O): 477 nm
absorption maximum (in CCO): 480 nm
absorption maximum (in CCOC(C)=O): 464 nm
absorption maximum (in CO): 476 nm and 474 nm
absorption maximum (in CS(C)=O): 471 nm
absorption maximum (in ClC(Cl)Cl): 500 nm
absorption maximum (in ClCCl): 522 nm
absorption maximum (in O): 448 nm
absorption maximum (in c1ccncc1): 494 nm

absorption maximum (in C1CCOC1): 354.46 nm
SMILES: CC(C)(C)c1ccc(-c2nc(-c3ccc(-n4c5ccccc5c5c6oc7ccccc7c6ccc54)cc3)nc(-c3ccc(C(C)(C)C)cc3)n2)cc1

absorption maximum (in ClC(Cl)Cl): 493 nm
SMILES: CCOC(CN1C(=O)C2=C(c3ccsc3)N(CC(OCC)OCC)C(=O)C2=C1c1ccsc1)OCC

absorption maximum (in ClCCl): 422 nm
SMILES: c1ccc(N2N=C(c3ccc4ccc5cccc6ccc3c4c56)CC2c2ccc3ccc4cccc5ccc2c3c45)cc1 (stereo not drawn)

absorption maximum (in CC#N): 366 nm
SMILES: COc1ccc2cc(/C=C/c3ccccc3)c(=O)oc2c1

absorption maximum (in CC1CCCCC1): 446 nm
SMILES: CC(C)(C)c1cc2c3cc(C(C)(C)C)c(-c4cc5cc6c7cccc8cccc(c9cc(C(C)(C)C)cc(c5cc4C(C)(C)C)c96)c87)cc3cc3c4cccc5cccc(c(c1)c23)c54

absorption maximum (in ClC(Cl)Cl): 723 nm
SMILES: COc1ccc2c(c1)CCc1c(-c3ccccc3)c3n(c1-2)[B-](F)(F)[N+]1=C2C(=C(c4ccccc4)C1=N3)CCc1ccccc12

absorption maximum (in ClCCl): 400 nm
SMILES: c1ccc(N(c2ccccc2)c2ccc(-c3nc4c5ccccc5c5ccccc5c4n3-c3ccccc3)cc2)cc1

absorption maximum (in ClC(Cl)Cl): 352 nm
SMILES: N#Cc1ccc(Oc2ccc3c4c(cccc24)C(=O)N(CCO)C3=O)cc1

absorption maximum (in CO): 432 nm
SMILES: C(=C\c1cc[n+]2ccc(/C=C/c3ccsc3)cc2c1)/c1ccsc1

absorption maximum (in CO): 357 nm
absorption maximum (in ClCCl): 363 nm
SMILES: CCCCCCN(CCCCCC)c1ccc(C#Cc2c(F)c(F)c(F)c(F)c2F)cc1

SMILES: O=CN1N=C(c2ccc(Br)cc2)C[C@@H]1c1ccccc1
absorption maximum (in C1CCCCC1): 305 nm
absorption maximum (in C1COCCO1): 303 nm
absorption maximum (in CC#N): 298 nm
absorption maximum (in CCO): 297 nm
absorption maximum (in CCOC(C)=O): 301 nm
absorption maximum (in CO): 298 nm
absorption maximum (in CS(C)=O): 302 nm
absorption maximum (in Cc1ccccc1): 306 nm
absorption maximum (in ClC(Cl)(Cl)Cl): 306 nm
